Key:
Experiment in all cases: relative viability (nuclei count vs DMSO), 5 days (fraction); higher = more cells survive
Gemcitabine + Trametinib = compound: Nc1ccn([C@@H]2O[C@H](CO)[C@@H](O)C2(F)F)c(=O)n1 [Gemcitabine] + CC(=O)Nc1cccc(-n2c(=O)n(C3CC3)c(=O)c3c(Nc4ccc(I)cc4F)n(C)c(=O)c(C)c32)c1 [Trametinib] (partner 0.02 µM)
Procedure, shortened: (§1)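 Lung cancer cell lines were pin-tool dosed in 1536-well plates on the day after seeding, with either a lone drug or a fixed anchor-drug dose plus five library-drug doses (not always all listed) in √10 steps. Nuclei were counted on 4× images after 5 days. Relative viability is the ratio of treated-well to vehicle-well nuclei counts, with each value a median of duplicate plates.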

Gemcitabine + Lapatinib = compound: Nc1ccn([C@@H]2O[C@H](CO)[C@@H](O)C2(F)F)c(=O)n1 [Gemcitabine] + CS(=O)(=O)CCNCc1ccc(-c2ccc3ncnc(Nc4ccc(OCc5cccc(F)c5)c(Cl)c4)c3c2)o1 [Lapatinib] (partner 2 µM)
Procedure, shortened: as §1

Gemcitabine + Phenformin = compound: Nc1ccn([C@@H]2O[C@H](CO)[C@@H](O)C2(F)F)c(=O)n1 [Gemcitabine] + N=C(N)NC(=N)NCCc1ccccc1 [Phenformin] (partner 250 µM)
Procedure, shortened: as §1

Gemcitabine + Olaparib = compound: Nc1ccn([C@@H]2O[C@H](CO)[C@@H](O)C2(F)F)c(=O)n1 [Gemcitabine] + O=C(c1cc(Cc2n[nH]c(=O)c3ccccc23)ccc1F)N1CCN(C(=O)C2CC2)CC1 [Olaparib] (partner 8 µM)
Procedure, shortened: as §1

| Cell Line | relative viability (Gemcitabine + Trametinib; first compound 0.001 µM) | relative viability (Gemcitabine + Trametinib; first compound 0.003162 µM) | relative viability (Gemcitabine + Trametinib; first compound 0.01 µM) | relative viability (Gemcitabine + Trametinib; first compound 0.03162 µM) | relative viability (Gemcitabine + Trametinib; first compound 0.1 µM) | relative viability (Gemcitabine + Lapatinib; first compound 0.001 µM) | relative viability (Gemcitabine + Lapatinib; first compound 0.003162 µM) | relative viability (Gemcitabine + Lapatinib; first compound 0.01 µM) | relative viability (Gemcitabine + Lapatinib; first compound 0.03162 µM) | relative viability (Gemcitabine + Lapatinib; first compound 0.1 µM) | relative viability (Gemcitabine + Phenformin; first compound 0.001 µM) | relative viability (Gemcitabine + Phenformin; first compound 0.003162 µM) | relative viability (Gemcitabine + Phenformin; first compound 0.01 µM) | relative viability (Gemcitabine + Phenformin; first compound 0.03162 µM) | relative viability (Gemcitabine + Phenformin; first compound 0.1 µM) | relative viability (Gemcitabine + Olaparib; first compound 0.001 µM) | relative viability (Gemcitabine + Olaparib; first compound 0.003162 µM) | relative viability (Gemcitabine + Olaparib; first compound 0.01 µM) | relative viability (Gemcitabine + Olaparib; first compound 0.03162 µM) | relative viability (Gemcitabine + Olaparib; first compound 0.1 µM) |
| --- | --- | --- | --- | --- | --- | --- | --- | --- | --- | --- | --- | --- | --- | --- | --- | --- | --- | --- | --- | --- |
| NCI-H2087 | 0.191 | 0.204 | 0.141 | 0.121 | 0.0794 | 0.9 | 0.814 | 0.396 | 0.17 | 0.161 | 0.455 | 0.231 | 0.149 | 0.108 | 0.113 | 0.69 | 0.413 | 0.254 | 0.0942 | 0.0872 |
| LU99A | 0.575 | 0.635 | 0.563 | 0.594 | 0.387 | 1.15 | 1.16 | 0.932 | 0.974 | 1 | 0.857 | 0.949 | 0.805 | 0.801 | 0.789 | 0.255 | 0.272 | 0.286 | 0.226 | 0.221 |
| HCC-366 | 0.284 | 0.392 | 0.0497 | 0.0318 | 0.0203 | 0.954 | 1.19 | 0.546 | 0.0287 | 0.0142 | 0.622 | 0.662 | 0.144 | 0.0348 | 0.0327 | 0.332 | 0.389 | 0.124 | 0.0348 | 0.0152 |
| EKVX | 0.394 | 0.243 | 0.13 | 0.161 | 0.11 | 0.238 | 0.354 | 0.111 | 0.116 | 0.12 | 0.233 | 0.194 | 0.119 | 0.132 | 0.109 | 0.898 | 0.672 | 0.289 | 0.174 | 0.11 |
| NCI-H2342 | 0.862 | 0.904 | 0.561 | 0.545 | 0.311 |  |  |  |  |  | 0.477 | 0.426 | 0.539 | 0.281 | 0.315 | 0.457 | 0.401 | 0.277 | 0.244 | 0.259 |
| NCI-H1755 | 0.759 | 0.749 | 0.736 | 0.616 | 0.328 | 0.962 | 1.04 | 0.959 | 0.35 | 0.265 | 0.582 | 0.651 | 0.482 | 0.4 | 0.336 | 0.872 | 0.887 | 0.787 | 0.425 | 0.278 |
| NCI-H647 | 0.404 | 0.286 | 0.117 | 0.0909 | 0.0535 | 0.742 | 0.28 | 0.0986 | 0.0734 | 0.0451 | 0.334 | 0.144 | 0.058 | 0.0604 | 0.0397 | 0.574 | 0.103 | 0.0533 | 0.0536 | 0.0389 |
| LC-2-ad | 0.926 | 1.01 | 0.845 | 0.645 | 0.236 | 0.978 | 0.917 | 0.82 | 0.188 | 0.111 | 0.569 | 0.347 | 0.339 | 0.212 | 0.161 | 0.805 | 0.791 | 0.65 | 0.482 | 0.224 |
| NCI-H1793 | 0.385 | 0.45 | 0.256 | 0.187 | 0.15 | 1.07 | 0.734 | 0.489 | 0.244 | 0.166 | 0.38 | 0.324 | 0.223 | 0.166 | 0.13 | 0.807 | 0.93 | 0.159 | 0.137 | 0.105 |

From the supplement of paper PMC10307832
